pIC50: −log10 of the molar value.
Legend:
[1] = Inhibition of hemozoin formation in 9.7 M acetate buffer at pH 4.8 at 60 degC after 2 hrs by microtiter-based high-throughput assay; assay type: functional
[2] = Inhibition of hemozoin formation in 12.9 M acetate buffer at pH 4.5 at 60 degC after 1 hr by microtiter-based high-throughput assay; assay type: functional
[3] = Inhibition of hemozoin formation in 8 M acetate buffer at pH 5 after 18 hrs by microtiter plate-based high-throughput assay; assay type: functional
[4] = Inhibition of hemozoin formation in 0.5 M acetate buffer at pH 4.8 after 12 hrs by tube-based high-throughput assay; assay type: functional
[5] = Inhibition of hemozoin formation in acetonitrile trophozoite extract by microtiter plate-based high-throughput assay; assay type: functional
[6] = Inhibition of hemozoin formation by microtiter plate-based high-throughput assay; assay type: functional
[7] = Inhibition of hemozoin formation in parasite digestive vacuole extract by microtiter plate-based high-throughput assay; assay type: functional
[8] = Inhibition of hemozoin formation in 0.5 M acetate buffer at pH 4.8 after 12 hrs by microtiter plate-based high-throughput assay in presence of trophozoite lysate; assay type: functional
[9] = Inhibition of hemozoin formation in 0.5 M acetate buffer at pH 4.8 after 24 hrs by microtiter plate-based high-throughput assay; assay type: functional
[10] = Inhibition of hemozoin formation in 0.5 M acetate buffer at pH 4.8 after 16 hrs by tube-based high-throughput assay in presence of 0.002 mg/mL phosphatidylcholine; assay type: functional
[11] = Inhibition of hemozoin formation in 0.1 M acetate buffer at pH 4.8 after 12 hrs by tube-based high-throughput assay in presence of Plasmodium yoelii homogenate; assay type: functional, tissue-based

pIC50 [4] | pIC50 [10] | pIC50 [11] | SMILES | pIC50 [1] | pIC50 [2] | pIC50 [3] | pIC50 [5] | pIC50 [6] | pIC50 [7] | pIC50 [8] | pIC50 [9]
4.82 | – | – | CCN(CC)Cc1cc(Nc2ccnc3cc(Cl)ccc23)ccc1O | 4.17 | 5.84 | 6.07 | 4.14 | 4.22 | 4.22 | 3.69 | 4.22
4.19 | 3.70 | 4.38 | C=C[C@H]1CN2CC[C@H]1C[C@H]2[C@H](O)c1ccnc2ccc(OC)cc12 [QUININE] | – | 5.46 | – | 4.11 | 3.80 | 4.00 | 3.37 | 3.80
4.61 | 3.93 | 4.36 | CCN(CC)CCCC(C)Nc1ccnc2cc(Cl)ccc12 (configuration not stated) [CHLOROQUINE] | 3.43 | 5.72 | 5.79 | – | 4.35 | 4.30 | 3.40 | 4.35
4.33 | – | – | OC(c1cc(C(F)(F)F)nc2c(C(F)(F)F)cccc12)C1CCCCN1 (configuration not stated) [MEFLOQUINE] | 3.32 | 5.54 | 5.21 | 3.85 | 3.92 | 4.10 | 3.70 | 3.92

Reference: ChEMBL document CHEMBL2396545, “Quinoline drug-heme interactions and implications for antimalarial cytostatic versus cytocidal activities” (J Med Chem, 2013)
